The NIST ThermoML archive (doi:10.1021/je030167i)

Tests used:
[1] = xn = mol fraction of the nth substance listed; details: 101.3 kPa, Liquid
[2] = 101.3 kPa, Liquid

CC1CCCO1 (stereo not given) [2-methyltetrahydrofuran] + CCCCO
[1]
Details | kinematic viscosity, 298.15 K [m2/s] | kinematic viscosity, 313.15 K [m2/s] | mass density, 298.15 K [kg/m3] | mass density, 313.15 K [kg/m3]
x2 = 0 | 5.59e-07 | 4.92e-07 | 849.28 | 834.01
x2 = 0.0488 | 5.91e-07 | 5.11e-07 | 847.62 | 832.35
x2 = 0.1039 | 6.22e-07 | 5.35e-07 | 845.56 | 830.5
x2 = 0.205 | 6.93e-07 | 5.88e-07 | 841.78 | 827.07
x2 = 0.3006 | 7.7e-07 | 6.52e-07 | 838.03 | 823.64
x2 = 0.4051 | 8.81e-07 | 7.34e-07 | 833.86 | 820
x2 = 0.5099 | 1.05e-06 | 8.41e-07 | 829.37 | 815.98
x2 = 0.6036 | 1.21e-06 | 9.69e-07 | 825.28 | 812.07
x2 = 0.7034 | 1.47e-06 | 1.16e-06 | 820.68 | 807.96
x2 = 0.8042 | 1.84e-06 | 1.39e-06 | 815.8 | 803.45
x2 = 0.906 | 2.4e-06 | 1.76e-06 | 810.56 | 798.76
x2 = 0.9582 | 2.8e-06 | 1.99e-06 | 807.81 | 796.23

CC1CCCO1 (stereo not given) [2-methyltetrahydrofuran] + CCC(C)O
[1]
Details | kinematic viscosity, 298.15 K [m2/s] | kinematic viscosity, 313.15 K [m2/s] | mass density, 298.15 K [kg/m3] | mass density, 313.15 K [kg/m3]
x2 = 0 | 5.59e-07 | 4.92e-07 | 849.28 | 834.01
x2 = 0.0437 | 5.66e-07 | 4.91e-07 | 847.1 | 831.74
x2 = 0.0915 | 6.07e-07 | 5.06e-07 | 844.81 | 829.48
x2 = 0.1968 | 6.45e-07 | 5.54e-07 | 839.74 | 824.64
x2 = 0.3024 | 7.16e-07 | 6.04e-07 | 834.82 | 820.02
x2 = 0.3993 | 8.06e-07 | 6.7e-07 | 830.17 | 815.81
x2 = 0.5051 | 9.5e-07 | 7.71e-07 | 825.31 | 811.2
x2 = 0.6018 | 1.11e-06 | 8.78e-07 | 820.77 | 806.88
x2 = 0.6999 | 1.39e-06 | 1.05e-06 | 816.27 | 802.66
x2 = 0.8077 | 1.86e-06 | 1.34e-06 | 811.31 | 797.97
x2 = 0.8708 | 2.26e-06 | 1.57e-06 | 808.35 | 795.28
x2 = 0.9361 | 2.9e-06 | 1.86e-06 | 805.28 | 792.38

CC1CCCO1 (stereo not given) [2-methyltetrahydrofuran] + CC(C)(C)Cl
[1], 298.15 K, x2 = 0
Details | kinematic viscosity [m2/s] | mass density [kg/m3]
– | 5.59e-07 | 849.28

CCC(C)O (stereo not given) [butan-2-ol]
[2]
Details | kinematic viscosity [m2/s] | mass density [kg/m3]
298.15 K | 3.73e-06 | 802.25
313.15 K | 2.24e-06 | 789.44

CC(C)CO [2-methyl-1-propanol] + CC1CCCO1
[1], x1 = 1
Details | kinematic viscosity [m2/s] | mass density [kg/m3]
298.15 K | 4.25e-06 | 797.71
313.15 K | 2.74e-06 | 785.89

CC(C)CCl [1-chloro-2-methylpropane]
[2]
Details | kinematic viscosity [m2/s] | mass density [kg/m3]
298.15 K | 4.92e-07 | 870.93
313.15 K | 4.29e-07 | 853.51
